The test concerns the target α-Glucosidase (E.C.3.2.1.20) enzyme (Saccharomyces cerevisiae) (Saccharomyces cerevisiae, UniProt P53341). As to the kind of experiment: biochemical. The test is classed as biochemical. The method, then:
α-Glucosidase (E.C.3.2.1.20) enzyme (Saccharomyces cerevisiae) inhibition activity was carried out by using previously described method. The enzyme (0.2 μ/mL) solution in phosphate buffered saline (PBS) (0.1 M, pH 6.8) with different concentrations of tested compounds (1, 0.5, 0.25, 0.125, 0.0625 and 0.0312 mM) at 37 °C were incubated for 15 min. After incubation, 0.7 mM p-nitrophenyl-α-D-glucopyranoside (a chromogenic substrate) was added and the change in absorbance was recorded at 400 nm for 30 min by microplate spectrophotometer (xMark™, BIO-RAD, California, LA, United States) per production of p-nitrophenyl. Al the isolated compounds were dissolve in DMSO (7.5% final) along with control. […] The IC50 values were calculated by using different concentrations of tested compounds. The results were processed by MS-Excel and Ez-fit software programs. The % inhibition was calculated by using the following formula:% Inhibition = 100 −(OD test well/OD control) × 100.

[1] abbreviates: S. cerevisiae α-glucosidase, read-out: IC50 (Table 2, repeated beside docking results).
Setting [2] is: tested up to 1.0 mM, PBS pH 6.8, 37 °C, NA = not active, read-out: α-Glucosidase inhibitory activity IC50.
Where [3] appears, read: IC50 (Table 2, repeated beside docking results), S. cerevisiae α-glucosidase.
Where [4] appears, read: α-Glucosidase inhibitory activity IC50, tested up to 1.0 mM, PBS pH 6.8, 37 °C, NA = not active.

Where two headings read alike, the source gives them in different places.

Sequence of α-Glucosidase (E.C.3.2.1.20) enzyme (Saccharomyces cerevisiae) (P53341 whole entry): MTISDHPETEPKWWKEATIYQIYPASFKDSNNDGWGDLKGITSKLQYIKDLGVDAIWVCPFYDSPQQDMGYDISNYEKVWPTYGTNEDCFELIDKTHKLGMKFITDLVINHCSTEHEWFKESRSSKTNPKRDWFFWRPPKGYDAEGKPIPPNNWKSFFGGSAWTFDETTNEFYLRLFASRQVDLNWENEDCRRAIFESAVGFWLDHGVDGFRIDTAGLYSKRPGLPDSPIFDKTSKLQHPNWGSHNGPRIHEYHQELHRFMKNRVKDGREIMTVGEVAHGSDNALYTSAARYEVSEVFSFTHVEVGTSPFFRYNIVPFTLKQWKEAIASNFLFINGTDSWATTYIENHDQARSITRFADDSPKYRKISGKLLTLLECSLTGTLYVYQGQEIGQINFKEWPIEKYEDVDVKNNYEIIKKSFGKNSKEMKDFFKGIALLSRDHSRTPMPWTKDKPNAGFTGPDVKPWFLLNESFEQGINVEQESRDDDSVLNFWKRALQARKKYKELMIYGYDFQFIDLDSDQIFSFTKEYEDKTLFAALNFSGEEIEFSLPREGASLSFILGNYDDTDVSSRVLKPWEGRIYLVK

Broadly, the IC50 is the midpoint of a concentration-inhibition curve. `CCCCCCCCCCCCCCCCCCCCCCCCCC(=O)O` [Compound 6, Cerotic acid]: the IC50 is 660 µM under setting [1] and 659.8 ± 2.15 µM under setting [2]. As to `CCCCCCCCC=CCCCCCCCCCC(=O)O` [Compound 8, 11-Eicosenoic acid], the IC50 runs as follows: under setting [3], 480 µM; under setting [4], 480 µM. On to `CCCCCCCCCCCCCCCC(=O)OC` [Compound 4, n-Hexadecanoic acid, methyl ester], for which, where the note is “in vitro”, the “α-glucosidase inhibition in words” value is “inactive”. `CCOC(=O)c1ccc(C(=O)OCC)c(Br)c1` [Compound 2, Diethyl 2-bromobenzene 1,4-dioate] yielded an IC50 of 234 µM. Besides, the IC50 under setting [4] was ~234 µM. On to `C/C=C(\CC[C@@H](C)[C@H]1CC[C@H]2[C@@H]3CC=C4C[C@@H](O)CC[C@]4(C)[C@H]3CC[C@]12C)C(C)C` [Compound 3, Fucosterol], for which the IC50 reads like this: under setting [3], 289 µM; under setting [4], 289 ± 4.91 µM. Turning to “Ethyl methyl 2-bromobenzene 1,4-dioate [Compound 1]”, the IC50 by setting is: under setting [1], 522 µM; under setting [2], 522 ± 0.51 µM. In the case of `CCCCCCCCCCCCCCCCCCC=CCCCCCCCC(=O)O` [Compound 7, n-Octacos-9-enoic acid], the IC50 under setting [2] turned out to be 30.5 ± 0.41 µM.

The record behind these values is article PMC6949951, “α-Glucosidase Inhibition and Molecular Docking Studies of Natural Brominated Metabolites from Marine Macro Brown Alga Dictyopteris hoytii” (Marine Drugs, 2019).
